Bounds are passed on as bounds.

The EC50 is the concentration giving half of the maximal effect. A lower EC50 goes with greater potency.

The experiment addresses T1, hFXR (Homo sapiens, UniProt Q96RI1).
T1 construct: expressed in transfected cells; host or cells: CV-1 cells
T1 sequence (Q96RI1 1-486): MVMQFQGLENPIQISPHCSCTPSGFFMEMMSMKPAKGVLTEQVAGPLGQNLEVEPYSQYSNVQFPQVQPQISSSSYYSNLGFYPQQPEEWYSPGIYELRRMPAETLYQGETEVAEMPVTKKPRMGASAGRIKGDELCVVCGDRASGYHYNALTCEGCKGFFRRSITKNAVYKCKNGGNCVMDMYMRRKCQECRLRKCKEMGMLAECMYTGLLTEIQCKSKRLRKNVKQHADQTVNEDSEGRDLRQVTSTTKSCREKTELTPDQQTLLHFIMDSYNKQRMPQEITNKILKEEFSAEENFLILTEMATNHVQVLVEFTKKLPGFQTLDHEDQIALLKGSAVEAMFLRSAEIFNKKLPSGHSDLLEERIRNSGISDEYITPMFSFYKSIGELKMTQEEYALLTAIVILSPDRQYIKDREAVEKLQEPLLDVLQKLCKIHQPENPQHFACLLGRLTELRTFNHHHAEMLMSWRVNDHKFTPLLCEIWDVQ
T1 sequence (P19793 1-462 partner): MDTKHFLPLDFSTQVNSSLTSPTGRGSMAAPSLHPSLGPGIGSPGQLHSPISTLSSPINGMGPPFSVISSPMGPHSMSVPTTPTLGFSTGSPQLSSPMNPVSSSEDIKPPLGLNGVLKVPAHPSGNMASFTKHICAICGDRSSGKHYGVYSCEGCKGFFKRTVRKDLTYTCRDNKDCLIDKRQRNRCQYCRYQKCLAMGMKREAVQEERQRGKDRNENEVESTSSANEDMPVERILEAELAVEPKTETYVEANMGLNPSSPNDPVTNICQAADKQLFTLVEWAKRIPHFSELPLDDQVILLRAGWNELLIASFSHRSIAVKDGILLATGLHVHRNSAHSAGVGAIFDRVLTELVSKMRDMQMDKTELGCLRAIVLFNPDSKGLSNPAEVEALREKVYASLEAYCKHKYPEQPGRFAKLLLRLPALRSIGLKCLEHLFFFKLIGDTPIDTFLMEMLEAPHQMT
The experiment can be described thus: In Vitro FXR Assay (TK): TK-ECRE-luc reporter in transfected CV-1 cells. The experiment is classed as cell-based. The note with it: 18 hrs, luminescence, maximum efficacy of <25% of the Fexarmine control classified as '+'. Put shortly:
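CV-1, transient co-transfection: hFXR + hRXR + TK-ECRE-luc + pCMX-YFP; charcoal-stripped serum. 18 h post-transfection, DMSO serial dilutions of cpd added; 18 h incubation; lysis, luminescence.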
`COc1ccc([C@H]2CC[C@H](CN(c3cccc(-c4cnn(C5CC5)c4)c3)C(=O)[C@H]3CC[C@H](C(=O)OC(C)C)CC3)CC2)cc1C` [Compound 22.01, trans-Isopropyl 4-((3-(1-cyclopropyl-1H-pyrazol-4-yl)phenyl)((trans-4-(4-methoxy-3-methylphenyl)cyclohexyl)methyl)carbamoyl) cyclohexanecarboxylate] gave an EC50 of at most 250 nM.

In turn, `CCCCOC(=O)[C@H]1CC[C@H](C(=O)N(C[C@H]2CC[C@H](c3ccc(OC)c(C)c3)CC2)c2cccc(-c3cnn(C4CC4)c3)c2)CC1` [Compound 22.02, trans-Butyl 4-((3-(1-cyclopropyl-1H-pyrazol-4-yl)phenyl)((trans-4-(4-methoxy-3-methylphenyl)cyclohexyl)methyl)carbamoyl) cyclohexanecarboxylate] showed an EC50 of at most 250 nM.

On to `CCCCCOC(=O)[C@H]1CC[C@H](C(=O)N(C[C@H]2CC[C@H](c3ccc(OC)c(C)c3)CC2)c2cccc(-c3cnn(C4CC4)c3)c2)CC1` [Compound 22.03, trans-Pentyl 4-((3-(1-cyclopropyl-1H-pyrazol-4-yl)phenyl)((trans-4-(4-methoxy-3-methylphenyl)cyclohexyl)methyl)carbamoyl) cyclohexanecarboxylate], for which the EC50 is at least 1000 nM.

Regarding `COc1ccc([C@H]2CC[C@H](CN(c3cccc(-c4cnn(C5CC5)c4)c3)C(=O)[C@H]3CC[C@H](C(=O)OCC(C)C)CC3)CC2)cc1C` [Compound 22.04, trans-Isobutyl 4-((3-(1-cyclopropyl-1H-pyrazol-4-yl)phenyl)((trans-4-(4-methoxy-3-methylphenyl)cyclohexyl)methyl)carbamoyl) cyclohexanecarboxylate], the EC50 was at most 250 nM.

For the molecule `COc1ccc([C@H]2CC[C@H](CN(c3cccc(-c4cnn(C5CC5)c4)c3)C(=O)[C@H]3CC[C@H](C(=O)OCCC(C)C)CC3)CC2)cc1C` [Compound 22.05, trans-Isopentyl 4-((3-(1-cyclopropyl-1H-pyrazol-4-yl)phenyl)((trans-4-(4-methoxy-3-methylphenyl)cyclohexyl)methyl)carbamoyl) cyclohexanecarboxylate], the EC50 was in the range of 250 to 1000 nM.

On to `CCCOC(=O)[C@H]1CC[C@H](C(=O)N(C[C@H]2CC[C@H](c3ccc(OC)c(C)n3)CC2)c2cc(-c3cnn(C4CC4)c3)ccn2)CC1` [Compound 22.06, trans-Propyl 4-((4-(1-cyclopropyl-1H-pyrazol-4-yl)pyridin-2-yl)((trans-4-(5-methoxy-6-methylpyridin-2-yl)cyclohexyl)methyl)carbamoyl) cyclohexanecarboxylate], for which the EC50 lay in the range of 250 to 1000 nM.

With `COc1ccc([C@H]2CC[C@H](CN(c3cccc(-c4cnn(C5CC5)c4)c3)C(=O)[C@H]3CC[C@H](C(=O)NCCO)CC3)CC2)cc1C` [Compound 23, trans-N^1-(3-(1-Cyclopropyl-1H-pyrazol-4-yl)phenyl)-N^4-(2-hydroxyethyl)-N^1-((trans-4-(4-methoxy-3-methylphenyl)cyclohexyl)methyl)cyclohexane-1,4-dicarboxamide], the EC50 was in the range of 250 to 1000 nM.

Turning to `CNC(=O)[C@H]1CC[C@H](C(=O)N(C[C@H]2CC[C@H](c3ccc(OC)c(C)c3)CC2)c2cccc(-c3cnc(OC)s3)c2)CC1` [Compound 24, trans-N^1-((trans-4-(4-Methoxy-3-methylphenyl)cyclohexyl)methyl)-N^1-(3-(2-methoxythiazol-5-yl)phenyl)-M-methylcyclohexane-1,4-dicarboxamide], the EC50 was at most 250 nM.

Regarding `COc1ncc(-c2cccc(N(C[C@H]3CC[C@H](c4ccc(OC)c(C)c4)CC3)C(=O)[C@H]3CC[C@H](C(N)=O)CC3)c2)s1` [Compound 24.01, trans-N^1-((trans-4-(4-Methoxy-3-methylphenyl)cyclohexyl)methyl)-N^1-(3-(2-methoxythiazol-5-yl)phenyl)cyclohexane-1,4-dicarboxamide], the EC50 is at most 250 nM.

Molecule `COc1ncc(-c2cccc(N(C[C@H]3CC[C@H](c4ccc(OC)c(C)c4)CC3)C(=O)[C@H]3CC[C@H](C(=O)N(C)C)CC3)c2)s1` [Compound 24.02, trans-N^1-((trans-4-(4-Methoxy-3-methylphenyl)cyclohexyl)methyl)-N^1-(3-(2-methoxythiazol-5-yl)phenyl)-N^4,N^4-dimethylcyclohexane-1,4-dicarboxamide] displayed an EC50 of at most 250 nM.

Take `COc1ncc(-c2cccc(N(C[C@H]3CC[C@H](c4ccc(OC)c(C)c4)CC3)C(=O)[C@H]3CC[C@H](C(=O)NCCO)CC3)c2)s1` [Compound 24.03]: the EC50 was at most 250 nM.

On to `COCCNC(=O)[C@H]1CC[C@H](C(=O)N(C[C@H]2CC[C@H](c3ccc(OC)c(C)c3)CC2)c2cccc(-c3cnc(OC)s3)c2)CC1` [Compound 24.04, trans-N^1-((trans-4-(4-Methoxy-3-methylphenyl)cyclohexyl)methyl)-N^4-(2-methoxyethyl)-N^1-(3-(2-methoxythiazol-5-yl)phenyl) cyclohexane-1,4-dicarboxamide], for which the EC50 was at most 250 nM.

Take `COc1ncc(-c2cccc(N(C[C@H]3CC[C@H](c4ccc(OC)c(C)c4)CC3)C(=O)[C@H]3CC[C@H](C(=O)NCCN(C)C)CC3)c2)s1` [Compound 24.05, trans-N^1-(2-(Dimethylamino)ethyl)-N^4-((trans-4-(4-methoxy-3-methylphenyl)cyc1ohexyl)methyl)-N^4-(3-(2-methoxythiazol-5-yl)phenyl)cyclohexane-1,4-dicarboxamide]: the EC50 was in the range of 250 to 1000 nM.

Molecule `COc1ncc(-c2cccc(N(C[C@H]3CC[C@H](c4ccc(OC)c(C)c4)CC3)C(=O)[C@H]3CC[C@H](C(=O)NS(C)(=O)=O)CC3)c2)s1` [Compound 24.06, trans-N^1-((trans-4-(4-Methoxy-3-methylphenyl)cyclohexyl)methyl)-N^1-(3-(2-methoxythiazol-5-yl)phenyl)-N^4-(methylsulfonyl) cyclohexane-1,4-dicarboxamide] yielded an EC50 of at most 250 nM.

Molecule `COC(=O)N[C@H]1CC[C@H](C(=O)N(C[C@H]2CC[C@H](c3ccc(OC)c(C)c3)CC2)c2cccc(-c3cnc(C4CC4)s3)c2)CC1` [Compound 25, Methyl (trans-4-((3-(2-cyclopropylthiazol-5-yl)phenyl)((trans-4-(4-methoxy-3-methylphenyl)cyclohexyl)methyl)carbamoyl)cyclohexyl)carbamate] registered an EC50 of at most 250 nM.

The molecule `COc1ncc(-c2cccc(N(C[C@H]3CC[C@H](c4ccc(OC)c(C)c4)CC3)C(=O)[C@H]3CC[C@H](NC(=O)OC(C)(C)C)CC3)c2)s1` [Compound 25.01, tert-Butyl (trans-4-(((trans-4-(4-methoxy-3-methylphenyl)cyclohexyl)methyl)(3-(2-methoxythiazol-5-yl)phenyl)carbamoyl)cyclohexyl)carbamate] came in with an EC50 of 250 to 1000 nM.

As to `COc1ncc(-c2cccc(N(C[C@H]3CC[C@H](c4ccc(OC)c(C)c4)CC3)C(=O)[C@H]3CC[C@H](CNC(=O)OC(C)(C)C)CC3)c2)s1` [Compound 25.02, tert-Butyl ((trans-4-(((trans-4-(4-methoxy-3-methylphenyl)cyclohexyl)methyl)(3-(2-methoxythiazol-5-yl)phenyl)carbamoyl)cyclohexyl)methyl)carbamate], the EC50 was 250 to 1000 nM.

As to `COc1ncc(-c2cccc(N(C[C@H]3CC[C@H](c4ccc(OC)c(C)c4)CC3)C(=O)[C@H]3CC[C@H](CN)CC3)c2)s1` [Compound 25.03, trans-4-(Aminomethyl)-N-((trans-4-(4-methoxy-3-methylphenyl)cyclohexyl)methyl)-N-(3-(2-methoxythiazol-5-yl)phenyl)cyclohexanecarboxamide], the EC50 is at least 1000 nM.

Molecule `COc1ncc(-c2cccc(N(C[C@H]3CC[C@H](c4ccc(OC)c(C)c4)CC3)C(=O)[C@H]3CC[C@H](NC(C)=O)CC3)c2)s1` [Compound 25.04, trans-4-Acetamido-N-((trans-4-(4-methoxy-3-methylphenyl)cyclohexyl)methyl)-N-(3-(2-methoxythiazol-5-yl)phenyl)cyclohexanecarboxamide] returned an EC50 of at most 250 nM.

Regarding `COC(=O)N[C@H]1CC[C@H](C(=O)N(C[C@H]2CC[C@H](c3ccc(OC)c(C)c3)CC2)c2cccc(-c3cnc(OC)s3)c2)CC1` [Compound 25.05, Methyl (trans-4-(((trans-4-(4-methoxy-3-methylphenyl)cyclohexyl)methyl)(3-(2-methoxythiazol-5-yl)phenyl)carbamoyl)cyclohexyl) carbamate], the EC50 is at most 250 nM.

Values taken from patent US20220089575A1, “FARNESOID X RECEPTOR AGONISTS AND USES THEREOF” (Metacrine, Inc., priority 2017, published 2022).
